In PMC5731253 (Journal of medicinal chemistry, 2017):
Entries after “also recorded” stand apart in the source; their conditions may differ.

Assays:
[1] = system: human embryonic lung (HEL) fibroblasts; assay: Minimum cytotoxic concentration, HEL cell morphology
carboxypeptidase Y = carboxypeptidase Y (Saccharomyces cerevisiae, UniProt P00729); assay: Carboxypeptidase Y-mediated cleavage monitored by 31P-NMR; format: in vitro ADME; conditions: for time to complete conversion of the starting material: carboxypeptidase Y; for conversion of the starting material by carboxypeptidase Y: result in words
HSV-2 (G) = assay: Anti-HSV-2; format: cell-based, herpes simplex virus type 2; conditions: HEL cell cultures
HSV-1 (KOS) = assay: Anti-HSV-1; format: cell-based, herpes simplex virus type 1; conditions: HEL cell cultures
[2] = system: thymidine kinase-deficient (TK−) HSV-1 KOS strain; format: cell-based, herpes simplex virus type 1; conditions: HEL cell cultures; for Antiviral Activity EC50 HSV-1 TK (KOS): TK-deficient, ACV-resistant strain

Sequence of carboxypeptidase Y (P00729 112-532): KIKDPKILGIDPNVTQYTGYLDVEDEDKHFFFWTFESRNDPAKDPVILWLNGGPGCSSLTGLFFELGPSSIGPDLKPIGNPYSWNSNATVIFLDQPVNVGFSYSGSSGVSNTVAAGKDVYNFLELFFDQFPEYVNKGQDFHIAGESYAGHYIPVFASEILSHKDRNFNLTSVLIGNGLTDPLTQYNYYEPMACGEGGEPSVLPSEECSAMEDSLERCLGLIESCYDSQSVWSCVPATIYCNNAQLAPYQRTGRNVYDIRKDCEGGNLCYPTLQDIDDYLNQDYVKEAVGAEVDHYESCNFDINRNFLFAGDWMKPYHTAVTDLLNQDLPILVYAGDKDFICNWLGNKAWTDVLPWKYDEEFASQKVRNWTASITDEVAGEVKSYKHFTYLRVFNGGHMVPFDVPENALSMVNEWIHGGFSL

SMILES	Cytotoxicity MCC ([1]; Table 4 (HCMV/VZV assays)) [µM]	Cytotoxicity MCC ([1]; Table 3 (HSV assays)) [µM]	Antiviral Activity EC50 HSV-1 TK (KOS) [2]	also measured
C[C@H](NP(=O)(OCC(CO)CCn1cnc2c(Cl)nc(N)nc21)Oc1ccccc1)C(=O)OCc1ccccc1 (mixture of isomers) [Compound 60]	>100			time to complete conversion of the starting material (carboxypeptidase Y): ≤ 0.5 h; conversion of the starting material by carboxypeptidase Y (carboxypeptidase Y): completely converted and full
Nc1nc(O)c2ncn(CSC(CO)CO)c2n1 [Compound 3]				Antiviral Activity EC50 HSV-2 (G) (HSV-2 (G)): sub-micromolar activity; Antiviral Activity EC50 HSV-1 (KOS) (HSV-1 (KOS)): sub-micromolar activity
CC(C)OC(=O)[C@H](C)NP(=O)(OCC(COP(=O)(N[C@@H](C)C(=O)OC(C)C)Oc1cccc2ccccc12)OCn1cnc2c(=O)[nH]c(N)nc21)Oc1cccc2ccccc12 (stereo partly drawn) [Compound 15, 2-amino-9-{[(1,3-dihydroxypropan-2-yl)oxy]methyl}-6,9-dihydro-1H-purin-6-one-[1-naphthyl(isopropoxy-L-alaninyl)] diphosphate]	>100	≥100	marginal activity	
CC(C)OC(=O)[C@H](C)NP(=O)(OCC(CO)OCn1cnc2c(=O)[nH]c(N)nc21)Oc1cccc2ccccc12 (stereo partly drawn) [Compound 16, 2-amino-9-{[(1,3-dihydroxypropan-2-yl)oxy]methyl}-6,9-dihydro-1H-purin-6-one-[1-naphthyl(isopropoxy-L-alaninyl)]phosphate]	>100	>100	marginal activity	conversion of the starting material by carboxypeptidase Y (carboxypeptidase Y): slow and incomplete conversion; also recorded: partial
C[C@H](NP(=O)(OCC(COP(=O)(N[C@@H](C)C(=O)OCc1ccccc1)Oc1ccccc1)OCn1cnc2c(=O)[nH]c(N)nc21)Oc1ccccc1)C(=O)OCc1ccccc1 (stereo partly drawn) [Compound 17]	>100	>100	considerable activity	
C[C@H](NP(=O)(OCC(COP(=O)(N[C@@H](C)C(=O)OCc1ccccc1)Oc1cccc2ccccc12)OCn1cnc2c(=O)[nH]c(N)nc21)Oc1cccc2ccccc12)C(=O)OCc1ccccc1 (stereo partly drawn) [Compound 18]	>50			fold difference in EC50 values between HSV-1 TK+ and TK− strains [2]: < 2.5 fold
CC(C)(NP(=O)(OCC(COP(=O)(NC(C)(C)C(=O)OCc1ccccc1)Oc1ccccc1)OCn1cnc2c(=O)[nH]c(N)nc21)Oc1ccccc1)C(=O)OCc1ccccc1 (stereo not drawn) [Compound 19]				fold difference in EC50 values between HSV-1 TK+ and TK− strains [2]: < 2.5 fold
CC(C)(NP(=O)(OCC(COP(=O)(NC(C)(C)C(=O)OCc1ccccc1)Oc1cccc2ccccc12)OCn1cnc2c(=O)[nH]c(N)nc21)Oc1cccc2ccccc12)C(=O)OCc1ccccc1 (stereo not drawn) [Compound 21]		>100	considerable activity	
CC(C)(NP(=O)(OCC(CO)OCn1cnc2c(=O)[nH]c(N)nc21)Oc1cccc2ccccc12)C(=O)OCc1ccccc1 (stereo not drawn) [Compound 22]	>50	>100		fold difference in EC50 values between HSV-1 TK+ and TK− strains [2]: < 2.5 fold
C[C@H](NP(=O)(OCC(CO)OCn1cnc2c(=O)[nH]c(N)nc21)Oc1cccc2ccccc12)C(=O)OCc1ccccc1 (stereo partly drawn) [Compound 28]	>100	>100	considerable activity	
C[C@H](NP(=O)(OCC(CCn1cnc2c(=O)[nH]c(/N=C/N(C)C)nc21)COP(=O)(N[C@@H](C)C(=O)OCc1ccccc1)Oc1ccccc1)Oc1ccccc1)C(=O)OCc1ccccc1 (stereo partly drawn) [Compound 30]		>100	inactive	Antiviral Activity EC50 HSV-2 (G) (HSV-2 (G)): inactive; Antiviral Activity EC50 HSV-1 (KOS) (HSV-1 (KOS)): inactive
C[C@H](NP(=O)(OCC(CCn1cnc2c(=O)[nH]c(/N=C/N(C)C)nc21)COP(=O)(N[C@@H](C)C(=O)OCc1ccccc1)Oc1cccc2ccccc12)Oc1cccc2ccccc12)C(=O)OCc1ccccc1 (stereo partly drawn) [Compound 31]			inactive	Antiviral Activity EC50 HSV-2 (G) (HSV-2 (G)): inactive; Antiviral Activity EC50 HSV-1 (KOS) (HSV-1 (KOS)): inactive
C[C@H](NP(=O)(OCC(CCn1cnc2c(=O)[nH]c(N)nc21)COP(=O)(N[C@@H](C)C(=O)OCc1ccccc1)Oc1cccc2ccccc12)Oc1cccc2ccccc12)C(=O)OCc1ccccc1 (stereo partly drawn) [Compound 37]	>50		inactive	Antiviral Activity EC50 HSV-2 (G) (HSV-2 (G)): inactive; Antiviral Activity EC50 HSV-1 (KOS) (HSV-1 (KOS)): inactive
CC(C)(NP(=O)(OCC(CCn1cnc2c(=O)[nH]c(N)nc21)COP(=O)(NC(C)(C)C(=O)OCc1ccccc1)Oc1ccccc1)Oc1ccccc1)C(=O)OCc1ccccc1 (stereo not drawn) [Compound 38]	>50	>100	inactive	Antiviral Activity EC50 HSV-2 (G) (HSV-2 (G)): inactive; Antiviral Activity EC50 HSV-1 (KOS) (HSV-1 (KOS)): inactive
CC(C)(NP(=O)(OCC(CO)CCn1cnc2c(=O)[nH]c(N)nc21)Oc1ccccc1)C(=O)OCc1ccccc1 (stereo not drawn) [Compound 39]	>50	>100		
CC(C)(NP(=O)(OCC(CCn1cnc2c(=O)[nH]c(N)nc21)COP(=O)(NC(C)(C)C(=O)OCc1ccccc1)Oc1cccc2ccccc12)Oc1cccc2ccccc12)C(=O)OCc1ccccc1 (stereo not drawn) [Compound 40]	>50	100	inactive	Antiviral Activity EC50 HSV-2 (G) (HSV-2 (G)): inactive; Antiviral Activity EC50 HSV-1 (KOS) (HSV-1 (KOS)): inactive
CC(C)(NP(=O)(OCC(CO)CCn1cnc2c(=O)[nH]c(N)nc21)Oc1cccc2ccccc12)C(=O)OCc1ccccc1 (stereo not drawn) [Compound 41]	>50	>100		
C[C@H](NP(=O)(OCC(CO)CCn1cnc2c(=O)[nH]c(N)nc21)Oc1cccc2ccccc12)C(=O)OCc1ccccc1 (stereo partly drawn) [Compound 45]	>50	>100		conversion of the starting material by carboxypeptidase Y (carboxypeptidase Y): slow and incomplete conversion; also recorded: partial
COc1nc(N)nc2c1ncn2CCC(COP(=O)(N[C@@H](C)C(=O)OCc1ccccc1)Oc1ccccc1)COP(=O)(N[C@@H](C)C(=O)OCc1ccccc1)Oc1ccccc1 (stereo partly drawn) [Compound 61]	>50			
COc1nc(N)nc2c1ncn2CCC(COP(=O)(N[C@@H](C)C(=O)OCC(C)(C)C)Oc1cccc2ccccc12)COP(=O)(N[C@@H](C)C(=O)OCC(C)(C)C)Oc1cccc2ccccc12 (stereo partly drawn) [Compound 62]	≥20	≥100		
CCCOC(=O)[C@H](C)NP(=O)(OCC(CCn1cnc2c(OC)nc(N)nc21)COP(=O)(N[C@@H](C)C(=O)OCCC)Oc1cccc2ccccc12)Oc1cccc2ccccc12 (stereo partly drawn) [Compound 63]	≥50	≥100		conversion of the starting material by carboxypeptidase Y (carboxypeptidase Y): fast conversion; also recorded: partial
CCC(C)(C)COC(=O)[C@H](C)NP(=O)(OCC(CCn1cnc2c(OC)nc(N)nc21)COP(=O)(N[C@@H](C)C(=O)OCC(C)(C)CC)Oc1cccc2ccccc12)Oc1cccc2ccccc12 (stereo partly drawn) [Compound 64]		≥100		
COc1nc(N)nc2c1ncn2CCC(CO)COP(=O)(N[C@@H](C)C(=O)OCc1ccccc1)Oc1cccc2ccccc12 (stereo partly drawn) [Compound 67]	>50		retention of some activity	
COc1nc(N)nc2c1ncn2CCC(CO)COP(=O)(N[C@@H](C)C(=O)OCC(C)(C)C)Oc1cccc2ccccc12 (stereo partly drawn) [Compound 68]	>50		retention of some activity	
CCCOC(=O)[C@H](C)NP(=O)(OCC(CO)CCn1cnc2c(OC)nc(N)nc21)Oc1cccc2ccccc12 (stereo partly drawn) [Compound 69]	≥50	100		time to complete conversion of the starting material (carboxypeptidase Y): ≤ 2 h; conversion of the starting material by carboxypeptidase Y (carboxypeptidase Y): complete conversion and full
COC(=O)[C@H](C)NP(=O)(OCC(CO)CCn1cnc2c(OC)nc(N)nc21)Oc1cccc2ccccc12 (stereo partly drawn) [Compound 70]	≥50	≥100		
CCC(C)(C)COC(=O)[C@H](C)NP(=O)(OCC(CO)CCn1cnc2c(OC)nc(N)nc21)Oc1cccc2ccccc12 (stereo partly drawn) [Compound 71]	≥50	100		
COc1nc(N)nc2c1ncn2CCC(CO)COP(=O)(N[C@@H](C)C(=O)OC1CCCCC1)Oc1cccc2ccccc12 (stereo partly drawn) [Compound 72]		≥100	retention of some activity	
C[C@H](NP1(=O)OCC(OCn2cnc3c(Cl)nc(N)nc32)CO1)C(=O)OCc1ccccc1 (stereo partly drawn) [Compound 75]				time to complete conversion of the starting material (carboxypeptidase Y): ≤ 1 h; conversion of the starting material by carboxypeptidase Y (carboxypeptidase Y): completely metabolised
CC(=O)OCC(COP(=O)(N[C@@H](C)C(=O)OCc1ccccc1)Oc1ccccc1)OCn1cnc2c(Cl)nc(N)nc21 (stereo partly drawn) [Compound 77]				conversion of the starting material by carboxypeptidase Y (carboxypeptidase Y): quickly metabolised
